Values of other authors in patent US20080081070A1, “PHARMACEUTICAL FORMULATION WITH ENHANCED SOLUBILITY FOR THE DELIVERY OF CORTICOSTEROIDS” (priority 2006, published 2008).
Converted amounts (≈) assume the structure as drawn.

Legend:
[1] = animal studies
[2] = test system: Crohn's disease
[3] = test system: mild and moderately active Crohn's disease
[4] = not given; remark: listed apart in the source
[5] = oral dosing of radiolabeled drug, humans

For `CCC(=O)O[C@]1(C(=O)O)[C@H](C)C[C@H]2[C@@H]3C[C@H](F)C4=CC(=O)C=C[C@]4(C)[C@@]3(F)[C@@H](O)C[C@@]21C` [17-β-carboxylic acid], the pharmacologic activity [1] is given as “negligible”.

In the case of `CCCC1O[C@@H]2C[C@H]3[C@@H]4CCC5=CC(=O)C=C[C@]5(C)[C@H]4[C@@H](O)C[C@]3(C)[C@]2(C(=O)CO)O1` (stereo partly shown) [budesonide], the “clinical features of hypercortisolism compared with prednisone” value ([2]; clinical studies) is given as “fewer”, the “likelihood of maintaining a normal plasma cortisol level compared with prednisone” value ([2]; clinical studies) is given as “greater likelihood” and the “bone mineral density compared with prednisone” value ([2]; two-year study) is given as “decreased less”.

For `CCC(=O)O[C@]1(C(=O)SCF)[C@H](C)C[C@H]2[C@@H]3C[C@H](F)C4=CC(=O)C=C[C@]4(C)[C@@]3(F)[C@@H](O)C[C@@]21C` [Fluticasone propionate, S-fluoromethyl-6-α-9-difluoro-11-β-hydroxy-16-α-methyl-3-oxoandrosta-1,4-diene-17-β-carbothioate, 17-propionate], the total blood clearance (average, predominantly through the liver) is given as 1,093 mL/min, the absorption [5] is given as “low” and the extraction from plasma [5] is given as “highly extracted”. For the same compound, the “oral bioavailability” value [5] was “negligible”, the “excretion of injected radioactivity calculated from whole body data” value ([3]; after three weeks oral treatment, before treatment 28 (21%), p less than 0.05) was 1.4 (0.7%) and the plasma cortisol values ([3]; three weeks oral treatment) was “no changes”. For the same compound, the leucocyte scan images ([3]; three weeks oral treatment, twelve patients) was “improved (seven patients) or unchanged (five patients)”, the “solubility in 95% ethanol” value ([4]; 95% ethanol) was “slightly soluble” and the “solubility in dimethyl sulfoxide” value ([4]; dimethyl sulfoxide) was “freely soluble”. The solubility in dimethyl-formamide ([4]; dimethyl-formamide) was “freely soluble”, the solubility in methanol ([4]; methanol) was “slightly soluble” and the solubility in water ([4]; water) was 0.14 µg/mL (≈ 0.28 µM).
